Data: US20250231185A1, “Coronavirus T Cell Epitopes, Megapools and Uses Thereof” (La Jolla Institute for Immunology, priority 2021, published 2025)

What follows are substances tested on CD4+ T cells (assay: Meta-analysis of published SARS-CoV-2 CD4 T cell epitope data curated in the IEDB (25 studies)). Details: CD4R (D) Megapool, non-spike antigens; dominant = recognized in 3 or more donors/studies.
Type: cell-based, human
With 2322 (KKPRQKRTATKAYNV) [compound 2322] the Dominant was “Yes (more dominant epitopes are defined by being recognized by 3 or more donors/different studies)”.
For 2330 (PSGTWLTYTGAIKLD) [compound 2330], the Dominant was “Yes (more dominant epitopes are defined by being recognized by 3 or more donors/different studies)”.
In the case of 2315 (NKDGIIWVATEGALN) [compound 2315], the Dominant is reported as “Yes (more dominant epitopes are defined by being recognized by 3 or more donors/different studies)”.
For 2321 (AAEASKKPRQKRTAT) [compound 2321], the Dominant was “Yes (more dominant epitopes are defined by being recognized by 3 or more donors/different studies)”.
In the case of 2319 (DAALALLLLDRLNQL) [compound 2319], the Dominant is reported as “Yes (more dominant epitopes are defined by being recognized by 3 or more donors/different studies)”.
With 2290 (YRINWITGGIAIAMA) [compound 2290] the Dominant was “Yes (more dominant epitopes are defined by being recognized by 3 or more donors/different studies)”.
2333 (ILLNKHIDAYKTFPP) [compound 2333] was tested, and the Dominant was “Yes (more dominant epitopes are defined by being recognized by 3 or more donors/different studies)”.
2318 (AGNGGDAALALLLLD) [compound 2318] was tested, and the Dominant was “Yes (more dominant epitopes are defined by being recognized by 3 or more donors/different studies)”.

Same assay, conditions: CD4RE megapool peptides (non-spike SARS-CoV-2 CD4 epitopes); dominant = recognized by 3 or more donors/different studies
In the case of 2643 (RWYFYYLGTGPEAGL) [compound 2643], the Dominant is reported as “Yes (more dominant epitopes are defined by being recognized by 3 or more donors/different studies)”.
In the case of 2616 (FYVYSRVKNLNSSRV) [compound 2616], the Dominant is reported as “Yes (more dominant epitopes are defined by being recognized by 3 or more donors/different studies)”.
2622 (TNILLNVPLHGTILT) [compound 2622] was tested, and the Dominant was “Yes (more dominant epitopes are defined by being recognized by 3 or more donors/different studies)”.
In the case of 2630 (KEITVATSRTLSYYK) [compound 2630], the Dominant is reported as “Yes (more dominant epitopes are defined by being recognized by 3 or more donors/different studies)”.
2618 (VLAAVYRINWITGGI) [compound 2618] was tested, and the Dominant was “Yes (more dominant epitopes are defined by being recognized by 3 or more donors/different studies)”.
With 2650 (AAEASKKPRQKRTAT) [compound 2650] the Dominant was “Yes (more dominant epitopes are defined by being recognized by 3 or more donors/different studies)”.
In the case of 2641 (YYRRATRRIRGGDGK) [compound 2641], the Dominant is reported as “Yes (more dominant epitopes are defined by being recognized by 3 or more donors/different studies)”.
2645 (KDGIIWVATEGALNT) [compound 2645] was tested, and the Dominant was “Yes (more dominant epitopes are defined by being recognized by 3 or more donors/different studies)”.
